Key:
[1] = biological target: hTG6 (Homo sapiens, UniProt O95932); test: Colorimetric transamidase activity assay (AL5 substrate), hTG6; format: biochemical
Experimental: (§1) Selectivity of certain irreversible inhibitors over other members of the transglutaminase family was assessed. […] Inhibitors were tested using a continuous colorimetric assay (Leblanc, A. et al., Biochemistry (2001), 40 (28): 8335-8342) for hTG1 and hTG6 and a commercially available continuous fluorescent assay that utilizes a peptidic FRET quenched substrate (Oertel, K. et al., Anal. Biochem. (2007), 367 (2): 152-158; Király, R. et al., Amino Acids (2016), 48 (1): 31-40) for the other transglutaminases, FXIIIa and hTG3. The rate constant of enzyme inactivation (kobs) for a specific concentration of inhibitor was obtained using Kitz and Wilson conditions (Kitz, R. et al., J. Biol. Chem. (1962), 237: 3245-49). Inhibitor concentrations were adjusted to account for competition with substrates in each enzymatic reaction.
(§2) In Vitro Assays. Colorimetric transamidase activity assay.

[2] = biological target: T1, FXIIIa (Homo sapiens, UniProt P00488); test: Fluorescence isopeptidase activity assay (A101 probe), FXIIIa; format: biochemical
T1 construct: purchased Zedira
T1 sequence (P00488 39-732 limits assumed): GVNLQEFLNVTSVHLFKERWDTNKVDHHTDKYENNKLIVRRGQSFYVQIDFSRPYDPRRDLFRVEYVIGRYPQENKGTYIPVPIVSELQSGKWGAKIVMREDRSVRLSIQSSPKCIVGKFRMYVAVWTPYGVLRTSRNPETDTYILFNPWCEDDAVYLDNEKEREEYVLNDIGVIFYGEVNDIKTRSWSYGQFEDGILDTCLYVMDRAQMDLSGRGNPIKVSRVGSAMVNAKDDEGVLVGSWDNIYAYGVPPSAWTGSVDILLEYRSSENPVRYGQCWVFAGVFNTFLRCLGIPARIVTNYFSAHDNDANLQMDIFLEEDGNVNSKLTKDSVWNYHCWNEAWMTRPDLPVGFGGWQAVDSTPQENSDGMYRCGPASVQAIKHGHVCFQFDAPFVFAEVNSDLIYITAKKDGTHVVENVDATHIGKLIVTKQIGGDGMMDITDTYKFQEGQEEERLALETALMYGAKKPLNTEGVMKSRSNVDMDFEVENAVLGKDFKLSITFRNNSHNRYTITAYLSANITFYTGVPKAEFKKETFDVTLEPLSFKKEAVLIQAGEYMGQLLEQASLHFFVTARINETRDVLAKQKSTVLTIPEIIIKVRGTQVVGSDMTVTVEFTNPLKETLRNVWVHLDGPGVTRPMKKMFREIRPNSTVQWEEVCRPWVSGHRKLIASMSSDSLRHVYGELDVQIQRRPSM
Experimental: as §1
Fluorescence isopeptidase activity assay. The isopeptidase activity of pre-activated TG3a and FXIIIa (purchased from Zedira) was measured via a fluorescence-based assay (Király, R. et al., Amino Acids (2016), 48 (1): 31-40) using the commercially available peptidic FRET quenched probe A101 from Zedira. Briefly, the final concentration in the reaction mixture contained 50 mM Tris (pH 7.0), 10 mM CaCl2, 100 mM NaCl, 2.8 mM TCEP, 50 μM A101 and 14 mM H-Gly-OMe. The reaction was monitored at 25° C. using a BioTek Synergy 4 plate reader (Ex/Em: 318/413 nm).

[3] = test system: A431 cells; test: Matrigel invasion assay, A431 cells; format: cell-based, human
Experimental: In (A), it is shown that A431-derived ECS cells have elevated TG2 and mesenchymal markers. A431 cells (40,000 cells/well) were grown in spheroid media in monolayer conditions or as non-attached spheroids (ECS cells) for 10 d. Cells were harvested and lysates prepared for immunoblot. In (B), A431 cells were electroporated with 3 μg of control- or TG2-siRNA and at 72 h extracts were prepared to assay TG2 and EMT marker level. In (C), A431-derived ECS cells were electroporated with 3 μg of the indicated siRNA and then grown as spheroids for 96 h. […] In (D), A431 cells (500,000 cells/well) were plated in monolayer culture in spheroid media in 100 mm dishes. […] Confluent monolayers were then scratched with a 10-μL pipette tip, rinsed, and width of the wound was monitored for 0-14 h.
In (A), A431 cells were grown as monolayers or in ultralow attachment plates (spheroids) in spheroid medium. […] Spheroid number was counted on days 1, 2 and 3. […] Spheroid number and trypan-blue viable cell number were determined at the indicated times following NC9 addition. […] A wound was created and ability of the cells to close the wound was monitored with time. […]
Invasion assay. […] The membrane was fixed in 4% paraformaldehyde, stained with 1 μg/m DAPI, and the underside of the membrane was photographed with an inverted fluorescent microscope and the number of cells counted.

[4] = biological target: hTG1 (Homo sapiens, UniProt P22735); test: Colorimetric transamidase activity assay (AL5 substrate), hTG1; format: biochemical; details: Table 9; Kitz and Wilson conditions
hTG1, sequence (P22735 whole entry): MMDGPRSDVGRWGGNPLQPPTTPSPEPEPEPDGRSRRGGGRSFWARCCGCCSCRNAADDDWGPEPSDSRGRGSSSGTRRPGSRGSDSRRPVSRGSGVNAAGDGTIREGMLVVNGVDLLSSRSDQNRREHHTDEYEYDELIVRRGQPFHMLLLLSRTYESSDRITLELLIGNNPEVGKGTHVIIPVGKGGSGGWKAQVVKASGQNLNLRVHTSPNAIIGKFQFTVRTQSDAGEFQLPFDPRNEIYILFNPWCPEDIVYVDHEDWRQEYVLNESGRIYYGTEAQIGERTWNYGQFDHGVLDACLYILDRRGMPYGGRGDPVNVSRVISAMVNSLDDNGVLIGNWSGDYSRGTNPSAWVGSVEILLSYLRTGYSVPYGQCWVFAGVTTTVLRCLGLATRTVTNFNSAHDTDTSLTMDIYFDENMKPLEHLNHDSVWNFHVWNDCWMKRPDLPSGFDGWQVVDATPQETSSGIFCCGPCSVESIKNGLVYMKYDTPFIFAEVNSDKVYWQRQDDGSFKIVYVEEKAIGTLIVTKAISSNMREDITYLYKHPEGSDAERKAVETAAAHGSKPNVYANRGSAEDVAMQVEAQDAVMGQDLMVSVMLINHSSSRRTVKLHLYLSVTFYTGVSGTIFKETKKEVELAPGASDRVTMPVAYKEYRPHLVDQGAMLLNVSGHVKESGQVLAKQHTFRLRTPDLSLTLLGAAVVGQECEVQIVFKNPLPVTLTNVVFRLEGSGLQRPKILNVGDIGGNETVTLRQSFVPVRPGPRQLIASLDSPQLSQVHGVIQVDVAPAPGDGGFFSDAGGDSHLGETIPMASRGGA
Experimental: as §1, §2

[5] = Table 9, Kitz and Wilson conditions

hTG6, sequence (O95932 whole entry): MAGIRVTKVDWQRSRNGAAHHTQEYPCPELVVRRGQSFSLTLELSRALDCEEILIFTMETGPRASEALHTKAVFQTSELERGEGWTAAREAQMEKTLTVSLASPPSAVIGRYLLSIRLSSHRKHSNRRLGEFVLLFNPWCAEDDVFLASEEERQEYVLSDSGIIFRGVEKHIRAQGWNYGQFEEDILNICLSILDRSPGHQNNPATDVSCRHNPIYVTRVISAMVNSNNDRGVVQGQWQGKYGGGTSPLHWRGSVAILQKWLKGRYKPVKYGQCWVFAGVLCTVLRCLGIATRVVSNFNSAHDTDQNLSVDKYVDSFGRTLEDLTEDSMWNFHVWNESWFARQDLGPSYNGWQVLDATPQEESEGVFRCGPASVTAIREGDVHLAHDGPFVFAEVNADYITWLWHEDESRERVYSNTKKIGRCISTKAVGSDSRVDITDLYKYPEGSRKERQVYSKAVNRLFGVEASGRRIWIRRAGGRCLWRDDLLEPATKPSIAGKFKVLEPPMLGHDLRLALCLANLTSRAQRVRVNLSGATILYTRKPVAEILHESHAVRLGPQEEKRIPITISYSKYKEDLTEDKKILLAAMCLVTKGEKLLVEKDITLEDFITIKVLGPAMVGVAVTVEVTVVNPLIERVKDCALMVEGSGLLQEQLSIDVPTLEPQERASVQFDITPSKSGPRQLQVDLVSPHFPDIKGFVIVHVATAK

Compound	kobs (10^−3 min^−1), TG6 [1, 5]	kobs (10^−3 min^−1), FXIIIa [2, 5]	reduction of ability of A431 ECS cells to invade Matrigel ([3]; 20 μM 1 hour, 24 hours) [%]	matrigel invasion ([3]; 20 μM pretreatment 2 h, 30 h)	kobs (10^−3 min^−1), TG1 [4]	inhibition of hTG6 [1]	less reactive with FXIIIa compared to hTG2 ([2]; from kobs) [fold]
C=CC(=O)NCCCC[C@H](NC(=O)OCc1ccccc1)C(=O)NCCOCCOCCNS(=O)(=O)c1cccc2c(N(C)C)cccc12 [NC9]	6.16 ± 0.14 10^−3 min^−1	5.91 ± 1.59 10^−3 min^−1	50	reduced matrigel invasion	78.9 ± 5.9 10^−3 min^−1	–	–
C=CC(=O)NCCCC[C@H](NC(=O)OCc1ccccc1)C(=O)N1CCN(S(=O)(=O)c2cccc3c(N(C)C)cccc23)CC1 [VA4, (S)-benzyl(6-acrylamido-1-(4-((5-(dimethylamino)naphthalen-1-yl)sulfonyl)piperazin-1-yl)-1-oxohexan-2-yl)carbamate]	–	–	–	–	–	no inhibition was observed	80

Source: patent US10894777B2, “TG2 inhibitor piperazine compounds and uses thereof” (UNIVERSITY OF OTTAWA, priority 2016, dated 2021)
